Literature values as cited in patent publication US20210134402A1, “METHODS AND SYSTEMS FOR PREDICTING SUCCESS RATES OF CLINICAL TRIALS” (THE TRUSTEES OF COLUMBIA UNIVERSITY IN THE CITY OF NEW YORK, priority 2018, published 2021).

Conditions: trial in follicular lymphoma

In the case of `Nc1ccccc1NC(=O)c1ccc(CNc2nccc(-c3cccnc3)n2)cc1` [mocetinostat], the “side effects observed in the trial” value is listed as “anaemia, neutropenia, nausea, and diarrhea” and the trial status is listed as “put on hold due to toxicity concerns”.
